In US20130157954A1, “METHODS FOR TREATMENT OR PROPHYLAXIS OF KIDNEY OR LIVER DYSFUNCTION” (NPS PHARMACEUTICALS, INC., priority 2010, published 2013):

Experiment: Example 1: liver biomarkers (total bilirubin, ALT, AST, ALP) in short bowel syndrome patients, every four weeks for 24 weeks; also sorted by >5% change from baseline
Type: in vivo, Human
Parameters: AST (SGOT) Change from Baseline Median / ALT (SGPT) Median / TOTAL BILIRUBIN Median / TOTAL BILIRUBIN Change from Baseline Median / ALT (SGPT) Change from Baseline Median / AST (SGOT) Median: unit not given here
Settings: 0.05 mg/kg/day
Procedure: Human patients with short bowel syndrome were divided into three groups: a control group (16 total individuals) to receive placebo, an experimental group (35 total individuals) to receive teduglutide at 0.05 mg/kg/day throughout the study, and an experimental group (32 total individuals) to receive teduglutide at 0.1 mg/kg/day throughout the study. Patients were treated by subcutaneous injection of placebo or the appropriate dose of teduglutide. As individuals with short bowel syndrome are likely to experience associated liver and kidney disease, known biomarkers of liver and kidney function were monitored every four weeks, for 24 weeks. The liver biomarkers tested included total bilirubin, ALT and AST and ALP. The kidney biomarkers tested included urea nitrogen, creatinine and GFR. Before administration of placebo or teduglutide, diagnostic biomarker levels were tested to establish a baseline for each individual.
To visualize the effect of GLP-2 on the levels of the diagnostic biomarkers, the average change from baseline was calculated for the placebo and teduglutide treated groups for each visit after a baseline was established. The average change from baseline of each group is depicted in FIGS. 1-7. The numerical figures for each diagnostic biomarker at each time point are depicted in Table 1.
The efficacy of teduglutide in treating liver dysfunction was further tested by sorting the data into two groups: individuals with abnormal baseline values of liver diagnostic biomarkers; and individuals with normal baseline values of liver diagnostic biomarkers. The mean diagnostic biomarker change from baseline for these two groups is shown for ALT (FIGS. 5 and 6) and AST (FIGS. 7 and 8). […] These changes were significant when compared to baseline levels for the group, and when compared to placebo (see FIGS. 5 and 7).
The raw data for this sorting is reproduced in Table 2 below.

CC[C@H](C)[C@H](NC(=O)[C@H](Cc1ccccc1)NC(=O)[C@H](CC(=O)O)NC(=O)[C@H](CCCNC(=N)N)NC(=O)[C@H](C)NC(=O)[C@H](C)NC(=O)[C@H](CC(C)C)NC(=O)[C@H](CC(N)=O)NC(=O)[C@H](CC(=O)O)NC(=O)[C@H](CC(C)C)NC(=O)[C@@H](NC(=O)[C@@H](NC(=O)[C@H](CC(N)=O)NC(=O)[C@H](CCSC)NC(=O)[C@H](CCC(=O)O)NC(=O)[C@H](CC(=O)O)NC(=O)[C@H](CO)NC(=O)[C@H](Cc1ccccc1)NC(=O)[C@H](CO)NC(=O)CNC(=O)[C@H](CC(=O)O)NC(=O)CNC(=O)[C@@H](N)Cc1c[nH]cn1)[C@@H](C)O)[C@@H](C)CC)C(=O)N[C@@H](CC(N)=O)C(=O)N[C@@H](Cc1c[nH]c2ccccc12)C(=O)N[C@@H](CC(C)C)C(=O)N[C@H](C(=O)N[C@@H](CCC(N)=O)C(=O)N[C@H](C(=O)N[C@@H](CCCCN)C(=O)N[C@H](C(=O)N[C@H](C(=O)N[C@@H](CC(=O)O)C(=O)O)[C@@H](C)O)[C@@H](C)CC)[C@@H](C)O)[C@@H](C)CC [teduglutide]
ALKALINE PHOSPHATASE Change from Baseline Median (DW4): −16.0 | ALT (SGPT) Change from Baseline Median (DW4): −5.0 | ALT (SGPT) Median (DW4): 27.0 | AST (SGOT) Change from Baseline Median (DW4): −4.0 | AST (SGOT) Median (DW4): 27.0 | TOTAL BILIRUBIN Change from Baseline Median (DW4): 0.0 | TOTAL BILIRUBIN Median (DW4): 7.0 | ALKALINE PHOSPHATASE Change from Baseline Median (DW8): −20.0 | ALT (SGPT) Change from Baseline Median (DW8): −4.0 | AST (SGOT) Change from Baseline Median (DW8): −3.0 | AST (SGOT) Median (DW8): 28.0 | TOTAL BILIRUBIN Change from Baseline Median (DW8): −1.0 | TOTAL BILIRUBIN Median (DW8): 8.0 | ALKALINE PHOSPHATASE Change from Baseline Median (DW12): −24.0 | ALT (SGPT) Change from Baseline Median (DW12): −10.0 | ALT (SGPT) Median (DW12): 26.0 | AST (SGOT) Change from Baseline Median (DW12): −8.0 | TOTAL BILIRUBIN Change from Baseline Median (DW12): −1.0 | TOTAL BILIRUBIN Median (DW12): 7.0 | ALT (SGPT) Change from Baseline Median (DW16): −2.5 | ALT (SGPT) Median (DW16): 28.0 | AST (SGOT) Change from Baseline Median (DW16): −1.5 | AST (SGOT) Median (DW16): 25.0 | TOTAL BILIRUBIN Change from Baseline Median (DW16): −1.0 | TOTAL BILIRUBIN Median (DW16): 7.0 | ALKALINE PHOSPHATASE Change from Baseline Median (DW20): −25.0 | ALT (SGPT) Change from Baseline Median (DW20): −5.0 | ALT (SGPT) Median (DW20): 26.0 | AST (SGOT) Change from Baseline Median (DW20): −4.0 | AST (SGOT) Median (DW20): 25.0 | TOTAL BILIRUBIN Change from Baseline Median (DW20): 0.0 | TOTAL BILIRUBIN Median (DW20): 9.0 | ALKALINE PHOSPHATASE Change from Baseline Median (DW 24): −29.0 | ALT (SGPT) Change from Baseline Median (DW 24): −5.0 | ALT (SGPT) Median (DW 24): 20.0 | AST (SGOT) Change from Baseline Median (DW 24): −4.5 | AST (SGOT) Median (DW 24): 25.0 | TOTAL BILIRUBIN Change from Baseline Median (DW 24): 0.0 | TOTAL BILIRUBIN Median (DW 24): 8.0 | ALKALINE PHOSPHATASE change from baseline <−5%, number of patients (week 4): 21 | ALKALINE PHOSPHATASE change from baseline <−5%, percent of patients (week 4): (60.0%) | ALKALINE PHOSPHATASE change from baseline >5%, number of patients (week 4): 3 | ALKALINE PHOSPHATASE change from baseline >5%, percent of patients (week 4): (8.6%) | ALKALINE PHOSPHATASE change from baseline −5% <= and <=5%, number of patients (week 4): 6 | ALKALINE PHOSPHATASE change from baseline −5% <= and <=5%, percent of patients (week 4): (17.1%) | ALT (SGPT) change from baseline <−5%, number of patients (week 4): 22 | ALT (SGPT) change from baseline <−5%, percent of patients (week 4): (62.9%) | ALT (SGPT) change from baseline >5%, number of patients (week 4): 8 | ALT (SGPT) change from baseline >5%, percent of patients (week 4): (22.9%) | ALT (SGPT) change from baseline −5% <= and <=5%, number of patients (week 4): 0 | ALT (SGPT) change from baseline −5% <= and <=5%, percent of patients (week 4): (0.0%) | AST (SGOT) change from baseline <−5%, number of patients (week 4): 21 | AST (SGOT) change from baseline <−5%, percent of patients (week 4): (60.0%) | AST (SGOT) change from baseline >5%, number of patients (week 4): 5 | AST (SGOT) change from baseline >5%, percent of patients (week 4): (14.3%) | AST (SGOT) change from baseline −5% <= and <=5%, number of patients (week 4): 2 | AST (SGOT) change from baseline −5% <= and <=5%, percent of patients (week 4): (5.7%) | TOTAL BILIRUBIN change from baseline <−5%, number of patients (week 4): 12 | TOTAL BILIRUBIN change from baseline <−5%, percent of patients (week 4): (34.3%) | TOTAL BILIRUBIN change from baseline >5%, number of patients (week 4): 8 | TOTAL BILIRUBIN change from baseline >5%, percent of patients (week 4): (22.9%) | TOTAL BILIRUBIN change from baseline −5% <= and <=5%, number of patients (week 4): 6 | TOTAL BILIRUBIN change from baseline −5% <= and <=5%, percent of patients (week 4): (17.1%) | ALKALINE PHOSPHATASE change from baseline <−5%, number of patients (week 8): 21 | ALKALINE PHOSPHATASE change from baseline <−5%, percent of patients (week 8): (60.0%) | ALKALINE PHOSPHATASE change from baseline >5%, number of patients (week 8): 6 | ALKALINE PHOSPHATASE change from baseline >5%, percent of patients (week 8): (17.1%) | ALKALINE PHOSPHATASE change from baseline −5% <= and <=5%, number of patients (week 8): 2 | ALKALINE PHOSPHATASE change from baseline −5% <= and <=5%, percent of patients (week 8): (5.7%) | ALT (SGPT) change from baseline <−5%, number of patients (week 8): 16 | ALT (SGPT) change from baseline <−5%, percent of patients (week 8): (45.7%) | ALT (SGPT) change from baseline >5%, number of patients (week 8): 9 | ALT (SGPT) change from baseline >5%, percent of patients (week 8): (25.7%) | ALT (SGPT) change from baseline −5% <= and <=5%, number of patients (week 8): 4 | ALT (SGPT) change from baseline −5% <= and <=5%, percent of patients (week 8): (11.4%) | AST (SGOT) change from baseline <−5%, number of patients (week 8): 16 | AST (SGOT) change from baseline <−5%, percent of patients (week 8): (45.7%) | AST (SGOT) change from baseline >5%, number of patients (week 8): 9 | AST (SGOT) change from baseline >5%, percent of patients (week 8): (25.7%) | AST (SGOT) change from baseline −5% <= and <=5%, number of patients (week 8): 4 | AST (SGOT) change from baseline −5% <= and <=5%, percent of patients (week 8): (11.4%) | TOTAL BILIRUBIN change from baseline <−5%, number of patients (week 8): 13 | TOTAL BILIRUBIN change from baseline <−5%, percent of patients (week 8): (37.1%) | TOTAL BILIRUBIN change from baseline >5%, number of patients (week 8): 8 | TOTAL BILIRUBIN change from baseline >5%, percent of patients (week 8): (22.9%) | TOTAL BILIRUBIN change from baseline −5% <= and <=5%, number of patients (week 8): 4 | TOTAL BILIRUBIN change from baseline −5% <= and <=5%, percent of patients (week 8): (11.4%) | ALKALINE PHOSPHATASE change from baseline <−5%, number of patients (week 12): 23 | ALKALINE PHOSPHATASE change from baseline <−5%, percent of patients (week 12): (65.7%) | ALKALINE PHOSPHATASE change from baseline >5%, number of patients (week 12): 2 | ALKALINE PHOSPHATASE change from baseline >5%, percent of patients (week 12): (5.7%) | ALKALINE PHOSPHATASE change from baseline −5% <= and <=5%, number of patients (week 12): 2
